Several values for one entry are separate records, joined by “and”; a condition that tells them apart may be missing. Equal entries are not always repeated.
Test system: 565232-114-T-J1-PDC complex spheroid viability
Assay: Anticancer human tumor 565232-114-T-J1-PDC patient-derived bladder carcinoma cell line growth inhibition [CLK]
Settings: for viability, T/C: stronger effect = lower value; for IC50: curve of compound
Source text: A high-throughput screen of multi-cell type tumor spheroids was designed to identify active combinations of […] and targeted small molecules. Complex spheroids include a stromal component modeled by human endothelial cells (HUVEC) and fibroblasts modeled by human mesenchymal stem cells (MSCs). The concentration ranges selected for each drug and investigational agent were based upon clinically achievable concentrations if the clinical Cmax of the agent was known.
Compounds. The drugs and investigational agents: cirtuvivint (SM08502; NSC835563), CC-671 (NSC850746), vemurafenib (NSC761431), tapotoclax (NSC804041), sotorasib (NSC818433), adagrasib (NSC831453), MRTX-1133 (NSC836407), BAY2416964 (NSC825713), copanlisib (NSC816437), inavolisib (NSC800729), abemaciclib (NSC768073), osimertinib (NSC779217), entinostat (NSC756642), eltanexor (KPT-8602, NSC794443), venetoclax (NSC766270), ceralasertib (NSC777638), bortezomib (NSC756655), olaparib (NSC753686), talazoparib (NSC767125), alisertib (NSC759677), peposertib (NSC802822), gemcitabine (NSC613327), 5-fluorouracil (NSC19893), SN-38 (NSC673596), oxaliplatin (NSC266046), paclitaxel (NSC125973), and doxorubicin (NSC123127), were obtained from the National Cancer Institute (NCI) Developmental Therapeutics Program Chemical Repository. The FDA-approved anticancer drug set is available from the Developmental Therapeutics Program at https://dtp.cancer.gov/organization/dscb/obtaining/available plates.htm. […] The stock solutions were prepared in dimethyl sulfoxide (DMSO, Sigma-Aldrich, St. Louis, MO, cat. D2650), except for the platinum complexes which were prepared in saline (Quality Biological, Gaithersburg, MD, cat. 114-055-101), at 800-fold the tested concentration and stored at -70 degrees C prior to their use. All drugs and investigational agents were tested over a range starting from a high concentration at or near the clinical Cmax and decreasing in half-log increments. If the clinical Cmax for an agent had not been determined, the highest concentration tested was 10 microM.
Cell Culture. All cells were maintained in an incubator at 37 degrees C and 5% CO2 with 95% humidity. The PDC lines were cultured according to standard operating procedures established by the NCI PDMR. Briefly, all PDCs were thawed and cultured in Matrigel-coated flasks prepared with a working solution of 1X Ham's F-12 nutrient mix, without supplementation (Invitrogen, Waltham, MA, cat. 11765054), 100 U/mL penicillin-streptomycin (Invitrogen, cat. 15140122), and 2.5% Matrigel (Corning Inc., Corning, NY, cat. 354248) for the first three passages. The 947758-054-R-J2-PDC line was cultured in 6B/Colon 1A media, which includes advanced DMEM/F-12 (Thermo Fisher Scientific, cat. 12634028), 10 mM HEPES (Thermo Fisher Scientific, cat. 15630080), 1X GlutaMAX supplement (Thermo Fisher Scientific, cat. 35050061), 0.1 mg/mL primocin (InvivoGen, cat. ant-pm-2), 10% defined fetal bovine serum, heat inactivated (HyClone Laboratories Inc., cat. SH30070.03HI), 1.25 mM N-Acetyl-L-cysteine (Sigma-Aldrich, cat. A9165), 10 mM nicotinamide (Sigma-Aldrich, cat. N0636), 1X B-27 supplement (Thermo Fisher Scientific, cat. 17504044), 1X N-2 supplement (Thermo Fisher Scientific, cat. 17502048), and 10 microM Y-27632 dihydrochloride (Tocris Bioscience, cat. 1254). The 876862-298-R-J1-PDC was cultured in 6E media, which includes all 6B/Colon 1A media components plus 50% L-WRN conditioned media (ATCC, cat. CRL-3276), 50 ng/mL recombinant human EGF recombinant protein (hEGF; Thermo Fisher Scientific, cat. PHG0311), 10 ng/mL recombinant human fibroblast growth factor 10 (hGFG-10; PeproTech, cat. 100-26), 1 ng/mL recombinant human fibroblast growth factor 2 (hFGF-2; PeproTech, cat. 100-18B), and 1 µM prostaglandin E2 (PGE2; Tocris, cat. 2296). The 227483-062-R1-J1-PDC line was cultured in Panc media, containing all 6E components except hFGF-2, with the addition of 500 nM SB-431542 (Selleckchem, cat. S1067) and 10 nM gastrin (Tocris, cat. 3006). […]
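Note: spheroids exposed to compounds for 7 days before readout.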
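Throughout, for viability, T/C: 100% = DMSO vehicle wells with luminescence normalized to vehicle control.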

SMILES | viability, T/C (compound 0.0316 µM) | viability, T/C (compound 0.1 µM) | viability, T/C (compound 0.316 µM) | viability, T/C (compound 1 µM) | viability, T/C (compound 3.16 µM) | viability, T/C (compound 10 µM) | IC50 | viability, T/C (compound 0.000949 µM) | viability, T/C (compound 0.003 µM) | viability, T/C (compound 0.00949 µM) | viability, T/C (compound 0.03 µM) | viability, T/C (compound 0.0949 µM) | viability, T/C (compound 0.3 µM)
C#Cc1c(F)ccc2cc(O)cc(-c3ncc4c(N5CC6CCC(C5)N6)nc(OCC56CCCN5CC(F)C6)nc4c3F)c12 (configuration not stated) | 106% and 77.8% | 92.2% and 83.3% | 103% and 102% | 93.2% and 110% | 98.7% and 94.8% | 93% and 95.2% | > 10 µM |  |  |  |  |  | 
C=C(F)C(=O)N1CCN(c2nc(OCC3CCCN3C)nc3c2CCN(c2cccc4cccc(Cl)c24)C3)CC1CC#N (configuration not stated) | 103% | 103% | 88.9% | 109% | 105% | 0.24% | 5.68 µM |  |  |  |  |  | 
C=CC(=O)N1CCN(c2nc(=O)n(-c3c(C)ccnc3C(C)C)c3nc(-c4c(O)cccc4F)c(F)cc23)C(C)C1 (configuration not stated) | 122% | 82.7% | 91.2% | 97% | 110% | 111% | > 10 µM |  |  |  |  |  | 
C=CC(=O)Nc1cc(Nc2nccc(-c3cn(C)c4ccccc34)n2)c(OC)cc1N(C)CCN(C)C |  |  |  |  |  |  | > 0.3 µM | 93.7% and 95.9% | 76% and 82.3% | 101% and 91.3% | 104% and 89.6% | 87.5% and 109% | 112% and 110%
CC(=O)O[C@H]1C(=O)[C@@]2(C)[C@H]([C@H](OC(=O)c3ccccc3)[C@]3(O)C[C@H](OC(=O)[C@H](O)[C@@H](NC(=O)c4ccccc4)c4ccccc4)C(C)=C1C3(C)C)[C@]1(OC(C)=O)CO[C@@H]1C[C@@H]2O | 39.2% and 16.7% | 20.1% and 11.8% | 19.2% and 10.8% | 15.5% and 6.12% | 20% and 10.1% | 23.2% and 10.5% | < 0.0316 µM |  |  |  |  |  | 
CC(C)CC(NC(=O)C(Cc1ccccc1)NC(=O)c1cnccn1)B(O)O (configuration not stated) |  |  |  |  |  |  | 0.00516 µM and 0.00503 µM | 97.2% and 89.6% | 85.3% and 89.2% | 10.3% and 1.88% | 4.99% and 0.69% | 2.74% and 2.59% | 1.61% and 0.54%
CC(CO)NC(=O)c1cc(-c2ccc(Cl)cc2)nn(-c2cnn(C)c2)c1=O (configuration not stated) | 97.3% and 115% | 85.3% and 77.5% | 83.9% and 109% | 90.8% and 89.4% | 94.1% and 97.8% | 90.5% and 91.3% | > 10 µM |  |  |  |  |  | 
CC(Nc1ccc2c(c1)OCCn1cc(N3C(=O)OCC3C(F)F)nc1-2)C(N)=O (configuration not stated) | 99.5% | 83.6% | 92.9% | 98.5% | 92.8% | 102% | > 10 µM |  |  |  |  |  | 
CC1(C)CCC(CN2CCN(c3ccc(C(=O)NS(=O)(=O)c4ccc(NCC5CCOCC5)c([N+](=O)[O-])c4)c(Oc4cnc5[nH]ccc5c4)c3)CC2)=C(c2ccc(Cl)cc2)C1 | 83.5% and 111% | 86.5% and 97.6% | 80.5% and 95.8% | 72.6% and 95.6% | 78.2% and 100% | 38.4% and 45.6% | 7.08 µM and 9.11 µM |  |  |  |  |  | 
CC1COCCN1c1cc(C2(S(C)(=N)=O)CC2)nc(-c2ccnc3[nH]ccc23)n1 (configuration not stated) | 83.5% and 105% | 88.9% and 90.1% | 101% and 94.8% | 88% and 99.1% | 76.2% and 99.8% | 63.5% and 25.8% | > 10 µM and 6.78 µM |  |  |  |  |  | 
CCCS(=O)(=O)Nc1ccc(F)c(C(=O)c2c[nH]c3ncc(-c4ccc(Cl)cc4)cc23)c1F | 81.4% | 88.2% | 101% | 104% | 113% | 21.5% | 6.49 µM |  |  |  |  |  | 
